Assay results: publication PMC6327999, “Hydroxyl-substituted double Schiff-base condensed 4-piperidone/cyclohexanones as potential anticancer agents with biological evaluation” (Journal of Enzyme Inhibition and Medicinal Chemistry, 2019)
Where two headings read alike, the source gives them in different places.

How the values were obtained:
Type in all cases: cell-based
[1] = system: human acute mononuclear granulocyte leukemia (THP-1); assay: Cytotoxicity, MTT assay, THP-1; conditions: for IC50: Homo sapiens, THP-1, MTT, 24 hours; for THP-1 SI: quotient of the IC50 values towards nonmalignant LO2 cells
Description: (§1) Compounds 2a–d, 3a–e, 4a–e, 5a–d, and 6a–c were screened against human neoplastic cell lines such as human lung carcinoma cells (A549), human gastric adenocarcinoma cells (SGC7901), human cervical carcinoma cells (HeLa), human liver hepatocellular carcinoma cell line (Hepg2), human chronic myelogenous leukemia cell line (K562), human acute mononuclear granulocyte leukemia (THP-1), human normal heptical cell line (LO2) (Table 1) using modified MTT assay (3-(4,5-dimethyl-2-thiazolyl)-2,5-diphenyl-2-H-tetrazolium bromide, MTT, Dojindo Laboratories, Tokyo, Japan). All cell lines were maintained at 37 °C in a humidified 5% CO2 and 95% air atmosphere. The HePG2 cell lines were cultured in DMEM containing 10% fetal bovine serum. Other cell lines were grown in medium 1640 and supplemented with 10% fetal bovine serum. […] Controls were prepared with 0.1% DMSO (v/v) only. The cells were seeded in a 96-well plate in 200 µL medium per well at a density of 1 × 10^4 cells/well for 24 hours. The cells were treated with serial concentrations of compound and incubated for 24 hours. Cells with only culture media were used as control. After the media was removed, 20 µL of MTT (5 mg/mL) was added then the plates were incubated for 4 hours at 37 °C in cell culture incubator. The MTT containing media were removed and then 150 µL of DMSO was added to dissolve the dark-blue formazan crystals. The optical density (OD) was measured by a multi-well plate reader (TECAN, Männedorf, Switzerland) at 570 nm. The results are expressed as a decrease in the cell viability (%) in comparison to untreated controls. The concentration of each compound was examined in triplicate, and the IC50 values are expressed in Table 1. The concentrations of the compounds were 50, 20, 10, 5, 2.5, 1, 0.5, 0.1, 0.05 and 0.01 µg/mL. Doxorubicin (DOX) and Curcumin were used as positive controls. […] The concentrations of curcumin used were 100, 50, 25, 12.5, 6.25, 3.125, 1, 0.5 and 0.1 µg/mL.

[2] = system: human carcinoma cell lines A549, SGC7901, HePG2, HeLa, K562, THP-1; assay: Cytotoxicity, MTT assay, panel of human carcinoma cell lines (average / overall); conditions: for IC50: Homo sapiens
Description: as §1
The cytotoxicity activities against human carcinoma cell lines A549, SGC7901, HePG2, HeLa, K562, THP-1 and cytotoxicity toward LO2 cell lines were evaluated by MTT method. DOX and curcumin were used as positive control. The selectivity index (SI) is the quotient of the IC50 values towards nonmalignant LO2 cells. […] Especially for 4a–e, 5a–d, and 6a–c, this ratio can reach about 92%.

[3] = system: human cervical carcinoma cells (HeLa); assay: Cytotoxicity, MTT assay, HeLa; conditions: for IC50: Homo sapiens, HeLa, MTT, 24 hours; for HeLa SI: quotient of the IC50 values towards nonmalignant LO2 cells
Description: as §1

[4] = system: human chronic myelogenous leukemia cell line (K562); assay: Cytotoxicity, MTT assay, K562; conditions: for IC50: Homo sapiens, K562, MTT, 24 hours; for K562 SI: quotient of the IC50 values towards nonmalignant LO2 cells
Description: as §1

[5] = system: human liver hepatocellular carcinoma cell line (Hepg2); assay: Cytotoxicity, MTT assay, HePG2; conditions: for IC50: Homo sapiens, HepG2, MTT, 24 hours; for HePG2 SI: quotient of the IC50 values towards nonmalignant LO2 cells
Description: as §1, with “µg/mL.” for “µg/mL. Doxorubicin (DOX) and Curcumin were used as positive controls.”

[6] = system: human gastric adenocarcinoma cells (SGC7901); assay: Cytotoxicity, MTT assay, SGC7901; conditions: for IC50: Homo sapiens, SGC-7901, MTT, 24 hours; for SGC7901 SI: quotient of the IC50 values towards nonmalignant LO2 cells
Description: as §1

[7] = system: human lung carcinoma cells (A549); assay: Cytotoxicity, MTT assay, A549; conditions: for IC50: Homo sapiens, A549, MTT, 24 hours; for A549 SI: quotient of the IC50 values towards nonmalignant LO2 cells
Description: as §1

[8] = system: human normal heptical cell line (LO2); assay: Cytotoxicity, MTT assay, non-malignant LO2; conditions: 24 hours, non-malignant cells
Description: as §1

[9] = average over the six carcinoma cell lines, read-out: Ave IC50
[10] = average over the six carcinoma cell lines

| Structure (SMILES) | IC50 [1] [µM] | THP-1 SI [1] | IC50 [2, 9] [µM] | IC50 ([2]; statement for all experimental carcinoma cell lines, read-out: IC50 values against human carcinoma cell lines) [µM] | Ave SI [2, 10] | IC50 [3] [µM] | HeLa SI [3] | IC50 [4] [µM] | K562 SI [4] | IC50 [5] [µM] | HePG2 SI [5] | IC50 [6] [µM] | IC50 [7] [µM] | A549 SI [7] | IC50 [8] [µM] | SGC7901 SI [6] |
| --- | --- | --- | --- | --- | --- | --- | --- | --- | --- | --- | --- | --- | --- | --- | --- | --- |
| Nc1cccc(/C=C2\CCC/C(=C\c3cccc(N)c3)C2=O)c1 [2a, (2E,6E)-2,6-bis(3-aminobenzylidene)cyclohexanone] | 6.2 ± 1.1 | 4.5 | 13.7 | > 5 | 2.7 | 25.9 ± 3.7 | 1.1 | 22.2 ± 1.9 | 1.3 | 10.7 ± 0.5 | 2.6 | 9.4 ± 0.2 | 7.9 ± 0.1 | 3.6 | 28.2 ± 3.9 | – |
| CN1C/C(=C\c2cccc(N)c2)C(=O)/C(=C/c2cccc(N)c2)C1 [2b, (3E,5E)-3,5-bis(3-aminobenzylidene)-1-methylpiperidin-4-one] | 1.5 ± 0.1 | 11.5 | 4 | – | 5.2 | 4.4 ± 0.1 | 3.8 | 4.3 ± 0.1 | 3.9 | 3.1 ± 0.2 | 5.4 | 4.2 ± 0.3 | 6.5 ± 0.1 | 2.6 | 16.9 ± 0.2 | 4.0 |
| Nc1ccc(F)c(/C=C2\CNC/C(=C\c3cc(N)ccc3F)C2=O)c1 [2c] | 1.4 ± 0.2 | 13.9 | 2.9 | – | 8.0 | 2.2 ± 0.1 | 8.7 | 2 ± 0.1 | 9.3 | 5.8 ± 0.2 | 3.2 | 2.5 ± 0.8 | 3.4 ± 1.2 | 5.5 | 18.8 ± 1.4 | 7.4 |
| CN1C/C(=C\c2cc(N)ccc2F)C(=O)/C(=C/c2cc(N)ccc2F)C1 [2d] | 2.1 ± 1.1 | 10.3 | 3.7 | – | 6.5 | 3.1 ± 0.1 | 6.9 | 3 ± 0.1 | 7.3 | 6.2 ± 0.3 | 3.5 | 3.8 ± 1.2 | 4.1 ± 1 | 5.4 | 21.6 ± 2.8 | 5.6 |
| O=C1/C(=C/c2cccc(/N=C/c3ccccc3O)c2)CCC/C1=C\c1cccc(/N=C/c2ccccc2O)c1 [3a] | 1.5 ± 0.1 | 12.4 | 6.1 | – | 4.9 | 9.9 ± 0.3 | 1.8 | 3.4 ± 0.01 | 5.4 | 3.3 ± 0.1 | 5.6 | 11.4 ± 0.2 | 7.4 ± 0.3 | 2.5 | 18.2 ± 0.2 | 1.6 |
| O=C1/C(=C/c2cccc(/N=C/c3cc(F)ccc3O)c2)CCC/C1=C\c1cccc(/N=C/c2cc(F)ccc2O)c1 [3b] | 1.6 ± 0.1 | 10.5 | 4.3 | – | 5.5 | 8.9 ± 0.2 | 1.9 | 3.4 ± 0.01 | 5.0 | 2.8 ± 0.1 | 6.1 | 2.7 ± 0.6 | 6.1 ± 0.4 | 2.8 | 17.1 ± 0.1 | 6.4 |
| O=C1/C(=C/c2cccc(/N=C/c3cc(Br)ccc3O)c2)CCC/C1=C\c1cccc(/N=C/c2cc(Br)ccc2O)c1 [3c] | 5.3 ± 0.01 | 2.3 | 10 | – | 1.4 | 11.4 ± 0.9 | 1.0 | 14 ± 0.1 | 0.9 | 13.7 ± 1.1 | 0.9 | 5.2 ± 0.8 | 10.6 ± 1.1 | 1.1 | 12 ± 0.1 | 2.3 |
| COc1ccc(/C=N/c2cccc(/C=C3\CCC/C(=C\c4cccc(/N=C/c5ccc(OC)cc5O)c4)C3=O)c2)c(O)c1 [3d] | 3.2 ± 0.03 | 3.6 | 5.8 | – | 2.5 | 13.1 ± 1 | 0.9 | 3.2 ± 0.02 | 3.6 | 4 ± 0.1 | 2.9 | 7.1 ± 1 | 4.1 ± 0.6 | 2.8 | 11.3 ± 0.1 | 1.6 |
| COc1cc(Br)cc(/C=N/c2cccc(/C=C3\CCC/C(=C\c4cccc(/N=C/c5cc(Br)cc(OC)c5O)c4)C3=O)c2)c1O [3e] | 3.3 ± 0.1 | 3.4 | 4.6 | – | 3.5 | 12.8 ± 0.9 | 0.9 | 4.2 ± 0.1 | 2.7 | 1.9 ± 0.01 | 6.0 | 3 ± 0.8 | 2.5 ± 0.4 | 4.4 | 11.3 ± 0.3 | 3.8 |
| CN1C/C(=C\c2cccc(/N=C/c3ccccc3O)c2)C(=O)/C(=C/c2cccc(/N=C/c3ccccc3O)c2)C1 [4a] | 0.9 ± 0.1 | 12.0 | 4.3 | – | 4.2 | 6.3 ± 0.2 | 1.7 | 2.8 ± 0.1 | 3.8 | 2.59 ± 0.1 | 4.1 | 8.3 ± 0.8 | 5.2 ± 0.4 | 2.1 | 10.6 ± 0.1 | 1.3 |
| CN1C/C(=C\c2cccc(/N=C/c3cc(F)ccc3O)c2)C(=O)/C(=C/c2cccc(/N=C/c3cc(F)ccc3O)c2)C1 [4b] | 1.2 ± 0.03 | 11.5 | 2.2 | – | 8.0 | 3.5 ± 0.1 | 4.0 | 2.15 ± 1 | 6.4 | 1.07 ± 0.1 | 12.9 | 1.4 ± 0.2 | 4.1 ± 0.4 | 3.4 | 13.8 ± 0.1 | 10.0 |
| CN1C/C(=C\c2cccc(/N=C/c3cc(Br)ccc3O)c2)C(=O)/C(=C/c2cccc(/N=C/c3cc(Br)ccc3O)c2)C1 [4c] | 2.5 ± 0.2 | 5.1 | 4.8 | – | 3.2 | 4.7 ± 0.1 | 2.8 | 6.2 ± 0.7 | 2.1 | 3.54 ± 0.1 | 3.6 | 3 ± 0.3 | 9 ± 0.8 | 1.4 | 12.8 ± 0.2 | 4.3 |
